Measured values reported in US8278304B2, “Substituted 4-hydroxypyrimidine-5-carboxamides” (Merck Sharp & Dohme Corp., priority 2008, dated 2012).
Counter-ions that a name gives are not always drawn.

Biological target: T1, PHD2 (Homo sapiens, UniProt Q9GZT9)
T1 construct: FLAG-tagged full length PHD2 expressed in and purified from baculovirus-infected Sf9 cells; FLAG; made in house; host or cells: baculovirus-infected Sf9 cells
Experiment: PHD2 / HIF-1α peptide hydroxylation assay, time resolved fluorescence (VHL complex detection)
Type: biochemical
Conditions: FLAG-tagged full length PHD2; 0.2 μM 2-oxoglutarate, 0.5 μM HIF-1α peptide; read-out: PHD2 Activity (PHD2 binding activity expressed as IC50 (nM))
Method: To each well of a 96-well plate was added 1 μL of test compound in DMSO and 20 μl of assay buffer (50 mM Tris pH 7.4/0.01% Tween-20/0.1 mg/ml bovine serum albumin/10 μM ferrous sulfate/1 mM sodium ascorbate/20 μg/ml catalase) containing 0.15 μg/ml FLAG-tagged full length PHD2 expressed in and purified from baculovirus-infected Sf9 cells. After a 30 min preincubation at room temperature, the enzymatic reactions were initiated by the addition of 4 μL of substrates (final concentrations of 0.2 μM 2-oxoglutarate and 0.5 μM HIF-1α peptide biotinyl-[…]).

T1 sequence (Q9GZT9 whole entry): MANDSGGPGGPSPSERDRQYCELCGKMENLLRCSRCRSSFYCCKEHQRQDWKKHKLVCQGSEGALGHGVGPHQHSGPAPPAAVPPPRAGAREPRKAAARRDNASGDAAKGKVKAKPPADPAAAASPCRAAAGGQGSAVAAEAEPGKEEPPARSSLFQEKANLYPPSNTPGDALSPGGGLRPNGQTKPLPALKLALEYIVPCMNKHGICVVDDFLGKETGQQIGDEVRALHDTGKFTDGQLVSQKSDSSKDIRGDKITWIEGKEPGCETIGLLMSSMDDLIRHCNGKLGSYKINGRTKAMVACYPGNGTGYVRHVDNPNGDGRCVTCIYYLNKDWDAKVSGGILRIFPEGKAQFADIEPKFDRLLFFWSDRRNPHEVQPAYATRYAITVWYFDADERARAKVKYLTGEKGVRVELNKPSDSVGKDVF

Row | Structure (SMILES) | IC50 [nM]
1 | O=C(N[C@@H](CO)c1ccccc1)c1cnc(-n2cccn2)nc1O [Example 123, 4-hydroxy-N-[(1R)-2-hydroxy-1-phenylethyl]-2-(1H-pyrazol-1-yl)pyrimidine-5-carboxamide] | ≤ 10
2 | O=C(NCc1ccc(C(F)(F)F)cc1F)c1cnc(-n2cccn2)nc1O [Example 68, N-[2-fluoro-4-(trifluoromethyl)benzyl]-4-hydroxy-2-(1H-pyrazol-1-yl)pyrimidine-5-carboxamide] | 10 to 100
3 | O=C(NCc1ccc(C(F)(F)F)nc1)c1cnc(-n2cccn2)nc1O [Example 10] | 10 to 100
4 | CC(C)(NC(=O)c1cnc(-n2cccn2)nc1O)c1ccc(Br)cc1 [Example 92, N-[1-(4-bromophenyl)-1-methylethyl]-4-hydroxy-2-(1H-pyrazol-1-yl)pyrimidine-5-carboxamide] | ≤ 10
5 | O=C(NCc1cccc2ccccc12)c1cnc(-n2cccn2)nc1O [Example 56, 4-Hydroxy-N-(1-naphthylmethyl)-2-(1H-pyrazol-1-yl)pyrimidine-5-carboxamide] | 10 to 100
6 | C[C@@H](NC(=O)[C@H](NC(=O)c1cnc(-n2cccn2)nc1O)c1ccccc1)c1ccccc1 [Example 180, 4-Hydroxy-N-((1R)-2-oxo-1-phenyl-2-{[(1R)-1-phenylethyl]amino}ethyl)-2-(1H-pyrazol-1-yl)pyrimidine-5-carboxamide] | 10 to 100
7 | C[C@H](NC(=O)c1cnc(-c2cccnn2)nc1O)c1ccc(-c2cccnc2)cc1 [Example 187, 4-hydroxy-2-pyridazin-3-yl-N-[(1S)-1-(4-pyridin-3-ylphenyl)ethyl]pyrimidine-5-carboxamide trifluoroacetate (salt)] | ≤ 10
8 | COc1ccc(C(NC(=O)c2cnc(-c3cccnn3)nc2O)c2nc(C)cs2)cc1 (single isomer, unassigned) [Example 144, 4-hydroxy-N-[(4-methoxyphenyl)(4-methyl-1,3-thiazol-2-yl)methyl]-2-(pyridazin-3-yl)pyrimidine-5-carboxamide] | ≤ 10
9 | O=C(NCc1ccc(Oc2ccccc2)cc1)c1cnc(-n2cccn2)nc1O [Example 93, 4-hydroxy-N-(4-phenoxybenzyl)-2-(1H-pyrazol-1-yl)pyrimidine-5-carboxamide] | ≤ 10
10 | COc1ccc(C(NC(=O)c2cnc(-c3cccnn3)nc2O)c2ccc(C#N)cc2)c(OC)c1 (single isomer, unassigned) [Example 154, N-[(4-cyanophenyl)(2,4-dimethoxyphenyl)methyl]-4-hydroxy-2-(pyridazin-3-yl)pyrimidine-5-carboxamide] | ≤ 10
11 | COc1ccc(CC(NC(=O)c2cnc(-c3cccnn3)nc2O)c2ccc(C#N)cc2)cc1 (single isomer, unassigned) [Example 161, N-[1-(4-cyanophenyl)-2-(4-methoxyphenyl)ethyl]-4-hydroxy-2-(pyridazin-3-yl)pyrimidine-5-carboxamide] | ≤ 10
12 | Cc1cccc(-c2ncc(C(=O)Nc3ccc(F)cc3Cl)c(O)n2)n1 [Example 16, N-(2-chloro-4-fluorophenyl)-4-hydroxy-2-(6-methylpyridin-2-yl)pyrimidine-5-carboxamide] | 1000 to 10000
13 | CC[C@H](NC(=O)c1cnc(-n2cc(C)cn2)nc1O)c1ccccc1 [Example 133, 4-hydroxy-2-(4-methyl-1H-pyrazol-1-yl)-N-[(1S)-1-phenylpropyl]pyrimidine-5-carboxamide] | ≤ 10
14 | O=C(NC(c1ccccc1)c1ccc(C(F)(F)F)nc1)c1cnc(-n2cccn2)nc1O (single isomer, unassigned) [Example 142, 4-hydroxy-N-{phenyl[6-(trifluoromethyl)pyridin-3-yl]methyl}-2-(1H-pyrazol-1-yl)pyrimidine-5-carboxamide] | ≤ 10
15 | CC(NC(=O)c1cnc(-n2cccn2)nc1O)c1ccncc1 (stereo not drawn) [Example 86, 4-hydroxy-2-(1H-pyrazol-1-yl)-N-(1-pyridin-4-ylethyl)pyrimidine-5-carboxamide trifluoroacetate (salt)] | ≤ 10
